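Grown in 96-well plates, cells were treated for 48 hours with each compound at five concentrations. Insufficient inhibition: endpoint recorded as highest concentration tested. GI50 = concentration required for 50% inhibition of growth. At the TGI there is no net growth.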
Assays:
Assay in all cases: NCI tumour cell line growth inhibition, 48 h
A549 NSCLC = test system: A549 NSCLC
HOP-92 NSCLC = test system: HOP-92 NSCLC
KM12 colon = test system: KM12 colon
MALME-3M melanoma = test system: MALME-3M melanoma
OVCAR-4 ovarian = test system: OVCAR-4 ovarian
RPMI-8226 leukemia = test system: RPMI-8226 leukemia
SK-MEL-5 melanoma = test system: SK-MEL-5 melanoma
SNB-19 CNS = test system: SNB-19 CNS
SW-620 colon = test system: SW-620 colon
ACHN renal = test system: ACHN renal

| SMILES | TGI (A549 NSCLC) | TGI (HOP-92 NSCLC) | TGI (KM12 colon) | TGI (MALME-3M melanoma) | TGI (OVCAR-4 ovarian) | TGI (RPMI-8226 leukemia) | TGI (SK-MEL-5 melanoma) | TGI (SNB-19 CNS) | TGI (SW-620 colon) | TGI (ACHN renal) | GI50 (A549 NSCLC) | GI50 (ACHN renal) | GI50 (HOP-92 NSCLC) | GI50 (KM12 colon) | GI50 (MALME-3M melanoma) | GI50 (OVCAR-4 ovarian) | GI50 (RPMI-8226 leukemia) | GI50 (SK-MEL-5 melanoma) | GI50 (SNB-19 CNS) | GI50 (SW-620 colon) |
| --- | --- | --- | --- | --- | --- | --- | --- | --- | --- | --- | --- | --- | --- | --- | --- | --- | --- | --- | --- | --- |
| COC(=O)[C@]1(c2ccc(N(C)C)cc2OC)C[C@@H]2CCCN(CCc3c1[nH]c1ccccc31)C2 | > 65.5 µM | 33.4 µM | > 55.9 µM | 33.2 µM | 28.2 µM | 63.2 µM | 31.4 µM | > 100 µM | > 100 µM |  |  |  |  |  |  |  |  |  |  |  |
| CCCOP(=O)(OCCC)OC(C(F)(F)F)C(F)(F)F |  |  | > 100 µM | > 100 µM |  | > 100 µM |  | > 100 µM |  | > 100 µM |  |  |  |  |  |  |  |  |  |  |
| COC(=O)CNC(=O)CCC(C)[C@H]1CCC2C3C(C[C@H](OC(C)=O)[C@@]21C)[C@@]1(C)CCC2(C[C@H]1C[C@H]3OC(C)=O)OOC1(CC[C@]3(C)C4C[C@H](OC(C)=O)[C@@]5(C)C(CC[C@@H]5C(C)CCC(=O)NCC(=O)OC)C4[C@H](OC(C)=O)C[C@@H]3C1)OO2 (some centres not stated) | 2.37 µM | 2.64 µM | 41.2 µM | 1.93 µM | 13.3 µM |  |  | > 50 µM | > 50 µM | 1.57 µM |  |  |  |  |  |  |  |  |  |  |
| COc1cc2cc(C(=O)N3CC(CCl)c4ccc(N(C)C)cc43)[nH]c2c(OC)c1OC (configuration not stated) |  |  | 0.543 µM |  | 0.729 µM |  | 0.236 µM | 8.21 µM | 0.773 µM |  |  |  |  |  |  |  |  |  |  |  |
| CN1Cc2cc(O)c(O)cc2C(O)C1 (configuration not stated) | > 100 µM | > 100 µM | > 100 µM | > 100 µM | > 100 µM | > 100 µM | > 100 µM | > 100 µM | > 100 µM | > 100 µM |  |  |  |  |  |  |  |  |  |  |
| CCOc1ccc(C(C)c2cc3c(cc2OC)OCO3)cc1 (configuration not stated) | 90.8 µM | 9.93 µM |  | 89.7 µM | > 100 µM | 22.2 µM | 1.15 µM | > 100 µM | > 100 µM | > 100 µM |  |  |  |  |  |  |  |  |  |  |
| CC(C)C(=O)/C=C/S/C=C/C(=O)C(C)C | > 100 µM |  | 92.1 µM | 25.6 µM | > 100 µM |  | 21.7 µM | > 100 µM | 17 µM | 5.27 µM |  |  |  |  |  |  |  |  |  |  |
| CC(C(=O)c1ccncc1)c1ccccn1 (configuration not stated) | > 100 µM | > 100 µM | > 100 µM | > 100 µM | > 100 µM | > 100 µM | > 100 µM | > 100 µM | > 100 µM | > 100 µM |  |  |  |  |  |  |  |  |  |  |
| S=c1nc(N/N=C/c2cccs2)c2cn[nH]c2[nH]1 | 14.5 µM | > 100 µM | 39.1 µM | > 100 µM | > 100 µM | 62.6 µM | > 100 µM | > 100 µM | > 100 µM | > 100 µM |  |  |  |  |  |  |  |  |  |  |
| O=P(Nc1ccccc1)(Oc1ccccc1)N(CCCl)CCCl (configuration not stated) | > 100 µM | > 100 µM | > 100 µM | > 100 µM | > 100 µM |  | > 100 µM |  | > 100 µM | > 100 µM |  |  |  |  |  |  |  |  |  |  |
| Cc1ccc(N=Nc2c(O)ccc3cc(S(=O)(=O)O)ccc23)cc1 | > 100 µM | > 100 µM | > 100 µM | > 100 µM | > 100 µM | > 100 µM | > 100 µM | > 100 µM | > 100 µM | > 100 µM |  |  |  |  |  |  |  |  |  |  |
| Cc1cc(OCCOCCC(F)(F)P(=O)(O)O)ccc1CCc1cnc2c(N)nc3cc(CCC(=O)O)ccc3c2c1 | > 100 µM | > 100 µM | > 100 µM | > 100 µM | > 100 µM | > 100 µM | > 100 µM | > 100 µM | > 100 µM | > 100 µM | > 100 µM | > 100 µM | 6.61 µM | > 100 µM | > 100 µM | > 100 µM | > 100 µM | > 100 µM | > 100 µM | > 100 µM |
| CCCCCCCCCCCCCC[n+]1ccc(C(N)=O)cc1 | 6.65 µM |  |  | 7.72 µM | 18.2 µM | 3.03 µM |  |  | 11.2 µM | 15.9 µM | 2.4 µM | 3.47 µM |  |  | 2.27 µM | 3.26 µM | 0.731 µM |  |  | 2.31 µM |
| COc1cc2c(cc1Oc1c(Oc3c(O)c(OC)cc4c3C(CC(C)C)N(C)CC4)c(OC)cc3c1C(CC(C)C)N(C)CC3)C(CC(C)C)N(C)CC2 (configuration not stated) | 6.39 µM | 7.87 µM | 3.78 µM | 7.39 µM | 8.15 µM | 10.4 µM | 0.832 µM | 2.18 µM | 8.28 µM |  |  |  |  |  |  |  |  |  |  |  |
| C=CC(C)C1(CCCOCc2ccccc2)C(=S)N2CCC3(CC24CCCC14)OCCO3 (configuration not stated) | > 100 µM |  | > 100 µM | > 100 µM | > 100 µM | 10.4 µM |  | > 100 µM | > 100 µM | > 100 µM |  |  |  |  |  |  |  |  |  |  |
| CNC(=O)SCC(NC(=O)CCC(N)C(=O)O)C(=O)NCC(=O)O (configuration not stated) | > 100 µM | > 100 µM | > 100 µM | > 100 µM | > 100 µM | > 100 µM | > 100 µM | > 100 µM | > 100 µM |  |  |  |  |  |  |  |  |  |  |  |
| O=C(O)/C(=C\c1ccc(O)cc1)c1cccc2ccccc12 | > 100 µM | > 100 µM | > 100 µM | > 100 µM | > 100 µM |  | > 100 µM | > 100 µM | > 100 µM | > 100 µM |  |  |  |  |  |  |  |  |  |  |
| COC1=CC(=O)C=C(OC)C1=O | 95.7 µM | 7.89 µM | 39.3 µM | 51 µM | 16.8 µM | 20.5 µM | 37.5 µM | 27 µM | 13.5 µM |  |  |  |  |  |  |  |  |  |  |  |
| COC1=C(C)C(=O)C2=C(C1=O)C1C3CC4=C(C(=O)C(OC)=C(C)C4=O)C(CNC(=O)C(C)O)N3C(C#N)C(C2)N1C (configuration not stated) |  | < 0.01 µM | 0.827 µM | < 0.0139 µM | 0.334 µM | < 0.215 µM | < 0.01 µM | 1.92 µM | 0.235 µM | 0.359 µM |  |  |  |  |  |  |  |  |  |  |

From PubChem BioAssay (NCI)
